Structures can show the parent of a compound that is named as a salt. Where two headings read alike, the source gives them in different places.
Assays:
HPK1 kinase = target: T1, HPK1 kinase (Homo sapiens, UniProt Q92918); experiment: HPK1 kinase assay (1 mM ATP); format: biochemical
T1 construct: purchased Carna 07-410
T1 sequence (Q92918 1-346 limits assumed): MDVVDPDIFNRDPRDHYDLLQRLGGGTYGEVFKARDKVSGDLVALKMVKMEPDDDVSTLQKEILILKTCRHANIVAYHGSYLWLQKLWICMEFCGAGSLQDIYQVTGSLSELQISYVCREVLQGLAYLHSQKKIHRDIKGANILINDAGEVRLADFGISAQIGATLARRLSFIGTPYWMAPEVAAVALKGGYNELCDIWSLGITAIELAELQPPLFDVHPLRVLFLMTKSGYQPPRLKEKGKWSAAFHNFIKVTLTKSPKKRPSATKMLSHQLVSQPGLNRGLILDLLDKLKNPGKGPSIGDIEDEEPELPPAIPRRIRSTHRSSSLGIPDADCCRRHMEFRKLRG
Procedure: Test example 5: HPK1 kinase assay (1 mM ATP)
The kinase HPK1 (Carna, Cat.No 07-410) was prepared into 2× kinase solution using 1× kinase buffer. The substrate Fluorescein-PKC (Invitrogen, Cat. No. PV3506) and ATP (working concentration: 1 mM) (Sigma, Cat. No. 2383-5G) were prepared into 2× substrate solution using 1×kinase buffer. The detection reagent was diluted to 2-fold the final concentration using an antibody diluent. 100 nL of compounds at different concentrations and 5 µL of kinase solution were added to each well of a 384-well plate, and the mixture was incubated at room temperature for 10 minutes. After the incubation was completed, 5 µL of substrate solution was added to each well, and the resulting mixture was reacted at room temperature for 90 minutes. After the reaction was completed, 10 µL of detection reagent was added to each well to terminate the reaction, and the mixture was incubated at room temperature for 60 minutes. Fluorescence readings were detected using an Envision instrument with excitation at 320 nm and emission at 520 nm and 495 nm. IC50 value was calculated using XLFit excel add-in version 5.4.0.8 software. The calculation formula of the inhibition rate was shown in formula 5-1, wherein max is the Ratio of the DMSO control, min is the Ratio of the negative control without enzyme, and sample is the Ratio of the compound. Ratio = RFU520nm /RFU495nm [formula] Inhibition% = (max−sample)/(max−min) × 100% [formula] Table 5-1 Inhibitory activity of test compounds against HPK1 kinase

HPK1 protein = target: T2, HPK1 protein (Homo sapiens, UniProt Q92918); experiment: Detection of HPK1 protein expression level in Jurkat cells (24 h); format: cell-based; conditions: 24 hours incubation
T2 construct: host or cells: Jurkat cells
Procedure: Test example 4: Detection of HPK1 protein expression level in Jurkat cells (24 h)
Jurkat cells from ATCC were placed in a RPMI-1640 complete medium (supplemented with 10% FBS and 1% penicillin-streptomycin solution) and cultured at 37°C and 5% CO2. The cells in the logarithmic growth phase were collected, the cell density was adjusted to 5 × 10^5 cells/well with the culture medium, and the cells were added to a 6-well cell culture plate at a volume of 1 mL/well. The compound to be tested was prepared to 2-fold the final concentration, 1 mL of the compounds at different concentrations were added to administration wells, a medium containing 0.2% DMSO was added to control wells, and the plate was incubated at 37°C and 5% CO2 for 24 hours. The cells were collected into a 1.5 mL centrifuge tube, 30 µL of RIPA lysis buffer (containing 1X protease inhibitor cocktail) was added, and the cells were lysed on ice for 15 minutes and centrifuged at 12000 rpm/min at 4°C for 10 minutes. The supernatant was collected and the protein content was determined using the BCA method. The protein sample to be tested was diluted to 0.2 mg/mL, HPK1 was detected using a fully automated protein expression quantitative analyser (ProteinSimple), and the internal reference protein was β-actin (all antibodies were from CST). The software (Compass for SW) of the fully automated protein expression quantitative analyser was used to process the raw data and calculate the peak area after internal reference normalisation and the HPK1 degradation rate relative to the control group. The HPK1 degradation rate was calculated according to formula 4-1, where Aadministration well is the relative peak area of the administration group after internal reference normalisation, and Acontrol well is the relative peak area of the vehicle control group after internal reference normalisation. DC50 values were calculated using a four-parameter non-linear fitting model in Graphpad 8.3.0 software. HPK1_degradation % = 100−(Aadministration well/Acontrol well×100%) [formula] Table 4-1 Degradation activity of test compounds against HPK1 protein in Jurkat cells (24 h)

[1] = Pharmacokinetic test in mice; format: in vivo, ICR mice; conditions: mouse, plasma
Procedure: Test example 6: Pharmacokinetic test in mice
Experimental objective: In this experiment, a single dose of test substances was administered to ICR mice intravenously and intragastrically, the concentrations of the test compounds in plasma of mice were measured, and the pharmacokinetic characteristics and bioavailability of the test compounds in mice were evaluated.
Experimental animals: Male ICR mice, 20-35 g, purchased from Chengdu Dossy Experimental Animals Co., Ltd. (SCXK (CHUAN) 2020-030).
Experimental method: On the day of the experiment, the ICR mice were randomly grouped according to their body weights. The animals were fasted but with water available overnight before the administration, and fed 4 h after the administration.
Sampling: Blood was taken from the orbits of the mice at specified time points, and placed in an EDTAK2 centrifuge tube. Centrifugation was performed at 5000 rpm at 4°C for 10 min, and the plasma was collected.
Time points for plasma collection in G1 and G1-2 groups: 0, 5 min, 15 min, 30 min, 1 h, 2 h, 4 h, 7 h, and 24 h.
Time points for plasma collection in G2 and G2-2 groups: 0, 5 min, 15 min, 30 min, 1 h, 2 h, 4 h, 7 h, and 24 h.
Before analysis and detection, all the samples were stored at -60°C or lower. The samples were analysed quantitatively by LC-MS/MS. Table 6-1 PK data of test compound drug in mice

[2] = ATP working concentration: 1 mM, read-out: IC50
[3] = ATP working concentration: 1 mM

T2 sequence (Q92918 whole entry): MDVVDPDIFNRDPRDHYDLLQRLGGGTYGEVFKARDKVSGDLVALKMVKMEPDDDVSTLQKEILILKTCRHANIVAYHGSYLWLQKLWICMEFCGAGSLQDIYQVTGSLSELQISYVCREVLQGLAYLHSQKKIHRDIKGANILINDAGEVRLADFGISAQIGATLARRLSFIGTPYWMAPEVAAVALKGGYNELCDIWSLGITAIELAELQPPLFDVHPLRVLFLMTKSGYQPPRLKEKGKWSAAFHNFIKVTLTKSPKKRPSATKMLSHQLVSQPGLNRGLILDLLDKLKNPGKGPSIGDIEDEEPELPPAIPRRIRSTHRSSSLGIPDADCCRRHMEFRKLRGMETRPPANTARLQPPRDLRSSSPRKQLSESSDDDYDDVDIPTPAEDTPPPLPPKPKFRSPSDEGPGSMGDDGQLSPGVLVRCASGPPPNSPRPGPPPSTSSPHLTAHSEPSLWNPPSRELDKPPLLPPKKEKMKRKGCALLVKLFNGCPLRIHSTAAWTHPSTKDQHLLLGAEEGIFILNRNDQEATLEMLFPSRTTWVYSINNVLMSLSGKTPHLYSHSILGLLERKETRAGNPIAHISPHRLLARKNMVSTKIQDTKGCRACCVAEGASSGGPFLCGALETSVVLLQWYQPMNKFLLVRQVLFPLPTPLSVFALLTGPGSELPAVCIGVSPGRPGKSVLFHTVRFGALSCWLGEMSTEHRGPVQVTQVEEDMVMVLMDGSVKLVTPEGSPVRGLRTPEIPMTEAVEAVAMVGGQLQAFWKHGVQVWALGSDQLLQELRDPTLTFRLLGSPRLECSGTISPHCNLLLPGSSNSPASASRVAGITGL

With `O=C1CCC(c2ccc(N3CCN(CC4CCN(c5ccc(Nc6ccc(-c7cnc8cc(F)ccn78)c7c6C(=O)NC7)nc5)CC4)CC3)cc2F)C(=O)N1` (single isomer, unassigned) [Compound 1-2] the IC50 (HPK1 kinase; [2]) was less than 0.05 µM.

Compound `O=C1CCN(c2cc3c(cc2F)N2CCN(CC4CC5(CCN(c6ccc(Nc7ccc(-c8cnc9cc(F)ccn89)c8c7C(=O)NC8)nc6)CC5)C4)C[C@H]2CC3)C(=O)N1` [Compound 16] has a DC50 (HPK1 protein; read-out: DC50) of less than 0.02 µM and an IC50 (HPK1 kinase; [2]) of less than 0.05 µM.

With `CN(C)Cc1nc(Nc2ccc(-c3cnc4cc(F)ccn34)c3c2C(=O)NC3)ccc1C1CCN(CC2(F)CCN(c3ccc(N4CCC(=O)NC4=O)c(F)c3)CC2)CC1` [Compound 38] the IC50 (HPK1 kinase; [2]) was less than 0.05 µM.

`N#Cc1ccn2c(-c3ccc(Nc4ccc(N5CCC6(CC5)CC(N5CCN7c8cc(F)c(N9CCC(=O)NC9=O)cc8CC[C@@H]7C5)C6)cn4)c4c3CNC4=O)cnc2c1` [Compound 48] showed a clearance ([1]; IV, 1 mg/kg) of 0.1 L/h/kg, a half-life ([1]; IV, 1 mg/kg) of 5.3 h and an AUC ([1]; po, i. g., 10 mg/kg) of 25.9 µg·h/mL. The Cmax ([1]; po, i. g., 10 mg/kg) was 2.29 µg/mL, the half-life ([1]; po, i. g., 10 mg/kg) was 4.9 h and the IC50 (HPK1 kinase; [3]) was less than 0.05 µM.

`CN(C)Cc1nc(Nc2ccc(-c3cnc4cc(F)ccn34)c3c2C(=O)NC3)ccc1C1CCN(CC2CCN(c3ccc(N4CCC(=O)NC4=O)c(F)c3)CC2)CC1` [Trifluoroacetic acid salt of compound 9] showed a DC50 (HPK1 protein) of less than 0.02 µM and an IC50 (HPK1 kinase) of less than 0.05 µM.

With `CN(C)Cc1nc(Nc2ccc(-c3cnc4cc(F)ccn34)c3c2C(=O)NC3)ccc1N1CCC(CN2CCN3c4cc(F)c(N5CCC(=O)NC5=O)cc4CC[C@H]3C2)CC1` [Trifluoroacetic acid salt of compound 10] the IC50 (HPK1 kinase; [3]) was less than 0.05 µM.

With `CN(C)Cc1nc(Nc2ccc(-c3cnc4cc(F)ccn34)c3c2C(=O)NC3)ccc1N1CCC(CN2CCN3c4cc(F)c(N5CCC(=O)NC5=O)cc4CC[C@@H]3C2)CC1` [Trifluoroacetic acid salt of compound 11] the IC50 (HPK1 kinase; [3]) was less than 0.05 µM.

`CN(C)Cc1nc(Nc2ccc(-c3cnc4cc(F)ccn34)c3c2C(=O)NC3)ccc1N1CCC(CN2CCN(c3ccc(N4CCC(=O)NC4=O)c(F)c3)CC2)CC1` [Trifluoroacetic acid salt of compound 12] showed an IC50 (HPK1 kinase) of less than 0.05 µM.

In the case of `O=C1CCC(c2ccc(N3CCC(CN4CCC(c5ccc(Nc6ccc(-c7cnc8cc(F)ccn78)c7c6C(=O)NC7)nc5)CC4)CC3)cc2F)C(=O)N1` (stereo not shown) [Trifluoroacetic acid salt of compound 17], the IC50 (HPK1 kinase) is reported as less than 0.05 µM.

`O=C1CCN(c2ccc(N3CCC(CN4CCC(c5ccc(Nc6ccc(-c7cnc8cc(F)ccn78)c7c6C(=O)NC7)nc5)CC4)CC3)cc2F)C(=O)N1` [Trifluoroacetic acid salt of compound 18] showed an IC50 (HPK1 kinase) of less than 0.05 µM.

Compound `O=C1CCN(c2cc3c(cc2F)N2CCN(CC4CN(c5ccc(Nc6ccc(-c7cnc8cc(F)ccn78)c7c6C(=O)NC7)nc5)C4)C[C@H]2CC3)C(=O)N1` [Trifluoroacetic acid salt of compound 21] has an IC50 (HPK1 kinase) of less than 0.05 µM.

`O=C1CCN(c2cc3c(cc2F)N2CCN(CC4CN(c5ccc(Nc6ccc(-c7cnc8cc(F)ccn78)c7c6C(=O)NC7)nc5)C4)C[C@@H]2CC3)C(=O)N1` [Trifluoroacetic acid salt of compound 22] gave an IC50 (HPK1 kinase) of less than 0.05 µM.

In the case of `O=C1CCN(c2cc3c(cc2F)N2CCN(CC4CCN(c5ccc(Nc6ccc(-c7cnc8cc(F)ccn78)c7c6C(=O)NC7)nc5CN5CC(F)(F)C5)CC4)C[C@H]2CC3)C(=O)N1` [Trifluoroacetic acid salt of compound 23], the IC50 (HPK1 kinase; [3]) is reported as less than 0.05 µM.

In the case of `O=C1CCN(c2cc3c(cc2F)N2CCN(CC4CCN(c5ccc(Nc6ccc(-c7cnc8cc(F)ccn78)c7c6C(=O)NC7)nc5CN5CC(F)(F)C5)CC4)C[C@@H]2CC3)C(=O)N1` [Trifluoroacetic acid salt of compound 24], the IC50 (HPK1 kinase; [3]) is reported as less than 0.05 µM.

Work on `O=C1CCN(c2cc3c(cc2F)N2CCN(CC4CCN(c5ccc(Nc6ccc(-c7cnc8cc(F)ccn78)c7c6C(=O)NC7)nc5CN5CCC(F)(F)C5)CC4)CC2CC3)C(=O)N1` (stereo not shown) [Trifluoroacetic acid salt of compound 25] yielded an IC50 (HPK1 kinase; [3]) of less than 0.05 µM.

With `O=C1CCN(c2cc3c(cc2F)N2CCN(CC4CCN(c5ccc(Nc6ccc(-c7cnc8cc(F)ccn78)c7c6C(=O)NC7)nc5CN5CCC(F)(F)C5)CC4)C[C@H]2CC3)C(=O)N1` [Trifluoroacetic acid salt of compound 28] the IC50 (HPK1 kinase; [3]) was less than 0.05 µM.

Compound `O=C1CCN(c2cc3c(cc2F)N2CCN(CC4CCN(c5ccc(Nc6ccc(-c7cnc8cc(F)ccn78)c7c6C(=O)NC7)nc5CN5CC[C@H](F)C5)CC4)C[C@H]2CC3)C(=O)N1` [Trifluoroacetic acid salt of compound 29] has an IC50 (HPK1 kinase; [3]) of less than 0.05 µM.

Work on `O=C1CCN(c2cc3c(cc2F)N2CCN(CC4CCN(c5ccc(Nc6ccc(-c7cnc8cc(F)ccn78)c7c6C(=O)NC7)nc5CN5CC[C@@H](F)C5)CC4)C[C@H]2CC3)C(=O)N1` [Trifluoroacetic acid salt of compound 30] yielded an IC50 (HPK1 kinase; [3]) of less than 0.05 µM.

`O=C1CC[C@H](NC(=O)c2cc3c(cc2F)N2CCN(C4CC5(CCN(c6ccc(Nc7ccc(-c8cnc9cc(F)ccn89)c8c7C(=O)NC8)nc6)CC5)C4)C[C@@H]2CC3)C(=O)N1` [Trifluoroacetic acid salt of compound 33] gave an IC50 (HPK1 kinase; [3]) of less than 0.05 µM.

`N#Cc1ccn2c(-c3ccc(Nc4ccc(N5CCC6(CC5)CC(N5CCN7c8cc(F)c(N9CCC(=O)NC9=O)cc8CC[C@H]7C5)C6)cn4)c4c3CNC4=O)cnc2c1` [Trifluoroacetic acid salt of compound 43] showed an IC50 (HPK1 kinase; [3]) of less than 0.05 µM.

Work on `O=C1CCN(c2cc3c(cc2F)N2CCN(C4CCC5(CC4)CCN(c4ccc(Nc6ccc(-c7cnc8cc(F)ccn78)c7c6C(=O)NC7)nc4)CC5)C[C@H]2CC3)C(=O)N1` [Trifluoroacetic acid salt of compound 44] yielded an IC50 (HPK1 kinase; [3]) of less than 0.05 µM.

In the case of `N#Cc1ccn2c(-c3ccc(Nc4ccc(N5CCC(N6CCN7c8cc(F)c(N9CCC(=O)NC9=O)cc8CC[C@H]7C6)CC5)cn4)c4c3CNC4=O)cnc2c1` [Trifluoroacetic acid salt of compound 45], the IC50 (HPK1 kinase) is reported as less than 0.05 µM.

`N#Cc1ccn2c(-c3ccc(Nc4ccc(N5CCC6(CCC(N7CCN8c9cc(F)c(N%10CCC(=O)NC%10=O)cc9CC[C@@H]8C7)CC6)CC5)cn4)c4c3CNC4=O)cnc2c1` [Trifluoroacetic acid salt of compound 46] showed an IC50 (HPK1 kinase; [3]) of less than 0.05 µM.

In the case of `O=C1CCN(c2cc3c(cc2F)N2CCN(C4CCC5(CC4)CCN(c4ccc(Nc6ccc(-c7cnc8cc(F)ccn78)c7c6C(=O)NC7)nc4)CC5)C[C@@H]2CC3)C(=O)N1` [Trifluoroacetic acid salt of compound 47], the IC50 (HPK1 kinase; [3]) is reported as less than 0.05 µM.

Source: patent EP4810494A1, “HPK1 DEGRADATION AGENT AND USE THEREOF IN FIELD OF MEDICINE” (Haisco Pharmaceutical Group Co., Ltd., priority 2023, dated 2025)
